Reference: US8106212B2, “Substituted enaminocarbonyl compounds” (Bayer Cropscience AG, priority 2006, dated 2012)

What was measured:
Type in all cases: in vivo
[1] = system: larvae of the banded cucumber beetle (Diabrotica balteata); test: Diabrotica balteata test, larvae in soil (DIABBA); conditions: 2 ppm in soil (mg/l), efficacy calculated from emerged maize plants
Procedure: [table] To produce a suitable preparation of active compound, 1 part by weight of active compound is mixed with the stated amounts of solvent and emulsifier, and the concentrate is diluted with water to the desired concentration. The active compound preparation is mixed with soil. The stated concentration refers to the amount of active compound per volume unit of soil (mg/l=ppm). The treated soil is filled into pots, and 5 maize corns are placed into each pot. 3 days after sowing, larvae of the banded cucumber beetle (Diabrotica balteata) are placed into the treated soil. After the desired period of time, the kill in % is determined. The efficacy is calculated from the number of maize plants that have emerged.

[2] = system: Boophilus microplus; test: Boophilus microplus test (BOOPMI injection); conditions: 20 μg/Tier injected into abdomen, 100% = no tick has laid fertile eggs
Procedure: [table] To produce a suitable preparation of active compound, 1 part by weight of active compound is mixed with the stated amounts of solvent, and the concentrate is diluted with solvent to the desired concentration. The solution of active compound is injected into the abdomen (Boophilus microplus), and the animals are transferred into dishes and kept in a temperature-controlled room. After the desired period of time, the effect in % is determined. 100% means that no tick has laid any fertile eggs.

[3] = system: green peach aphid (Myzus persicae); test: Myzus persicae test, hydroponic treatment (MYZUPE sys.); conditions: 4 ppm in water (mg/l), pea plant
Procedure: [table] To produce a suitable preparation of active compound, 1 part by weight of active compound is mixed with the stated amounts of solvent and emulsifier, and the concentrate is diluted with water to the desired concentration. The preparation of active compound is mixed with water. The stated concentration refers to the amount of active compound per volume unit of water (mg/l=ppm). The treated water is filled into containers housing a pea plant (Pisum sativum) which is then infected with the green peach aphid (Myzus persicae). After the desired period of time, the kill in % is determined. 100% means that all aphids have been killed; 0% means that none of the aphids have been killed.

[4] = system: green peach aphid (Myzus persicae); test: Myzus test (MYZUPE spray treatment); conditions: Chinese cabbage discs sprayed
Procedure: [table] To produce a suitable preparation of active compound, 1 part by weight of active compound is mixed with the stated amounts of solvent and emulsifier, and the concentrate is diluted with emulsifier-containing water to the desired concentration. Discs of Chinese cabbage (Brassica pekinensis) which are infected by all stages of the green peach aphid (Myzus persicae) are sprayed with a preparation of active compound of the desired concentration. After the desired period of time, the effect in % is determined. 100% means that all aphids have been killed; 0% means that none of the aphids have been killed. [table] To produce a suitable preparation of active compound, 1 part by weight of active compound is mixed with the stated amounts of solvent and emulsifier, and the concentrate is diluted with emulsifier-containing water to the desired concentration. Discs of Chinese cabbage (Brassica pekinensis) which are infected by all stages of the green peach aphid (Myzus persicae) are sprayed with a preparation of active compound of the desired concentration. After the desired period of time, the effect in % is determined. 100% means that all aphids have been killed; 0% means that none of the aphids have been killed.

[5] = system: larvae of the mustard beetle (Phaedon cochleariae); test: Phaedon test (PHAECO spray treatment); conditions: 500 g/ha, Chinese cabbage discs sprayed
Procedure: [table] To produce a suitable preparation of active compound, 1 part by weight of active compound is mixed with the stated amounts of solvent and emulsifier, and the concentrate is diluted with emulsifier-containing water to the desired concentration. Discs of Chinese cabbage (Brassica pekinensis) are sprayed with a preparation of active compound of the desired concentration and, after drying, populated with larvae of the mustard beetle (Phaedon cochleariae). After the desired period of time, the effect in % is determined. 100% means that all beetle larvae have been killed; 0% means that none of the beetle larvae have been killed.

[6] = system: adult fleas (Ctenocephalides felis); test: Ctenocephalides felis; oral (CTECFE); conditions: 4 ppm in citrated cattle blood
Procedure: [table] To produce a suitable preparation of active compound, 1 part by weight of active compound is mixed with the stated amount of solvent. Part of the concentrate is diluted with citrated cattle blood, and the desired concentration is prepared. 20 unfed adult fleas (Ctenocephalides felis) are placed into a chamber whose top and bottom ends are closed with gauze. A metal cylinder whose bottom end is closed with parafilm is placed onto the chamber. The cylinder contains the blood/active compound preparation, which can be taken up by the fleas through the parafilm membrane. The blood is warmed to 37° C., but the flea chamber is at room temperature. After the desired period of time, the kill in % is determined. 100% means that all fleas have been killed; 0% means that none of the fleas have been killed.

[7] = system: cotton aphid (Aphis gossypii); test: Aphis gossypii test (APHIGO), leaf dip; conditions: 0.8 ppm, cotton leaves dipped
Procedure: [table] To produce a suitable preparation of active compound, 1 part by weight of active compound is mixed with the stated amounts of solvent and emulsifier, and the concentrate is diluted with emulsifier-containing water to the desired concentration. Cotton leaves (Gossypium hirsutum) which are heavily infested by the cotton aphid (Aphis gossypii) are treated by being dipped into the preparation of active compound of the desired concentration. After the desired period of time, the kill in % is determined. 100% means that all aphids have been killed; 0% means that none of the aphids have been killed.

[8] = system: green peach aphid (Myzus persicae); test: Myzus test; oral (MYZUPE O); conditions: 0.0064 ppm, oral uptake by sucking
Procedure: Myzus Test; Oral; (MYZUPE O) Solvent: 80 parts by weight of acetone To produce a suitable preparation of active compound, 1 part by weight of active compound is mixed with the stated amounts of solvent, and the concentrate is diluted with water to the desired concentration. Containers are populated with all stages of the green peach aphid (Myzus persicae), treatment is by sucking at the preparation of active compound of the desired concentration. After the desired period of time, the effect in % is determined. 100% means that all aphids have been killed; 0% means that none of the aphids have been killed.

[9] = system: Meloidogyne incognita; test: Meloidogyne test (MELGIN spray treatment); conditions: 4 ppm, nematicidal activity by formation of galls on lettuce roots (100% = no galls)
Procedure: [table] To produce a suitable preparation of active compound, 1 part by weight of active compound is mixed with the stated amounts of solvent, and the concentrate is diluted with water to the desired concentration. Containers are filled with sand, active compound solution, Meloidogyne incognita egg/larvae suspension and lettuce seeds. The lettuce seeds germinate and the plants develop. On the roots, galls are formed. After the desired period of time, the nematicidal activity is determined by the formation of galls in %. 100% means that no galls were found; 0% means that the number of galls on the treated plants corresponds to that of the untreated controls.

[10] = system: Lucilia cuprina larvae; test: Lucilia cuprina test (LUCICU); conditions: 4 ppm, treated horse meat
Procedure: [table] To produce a suitable preparation of active compound, 1 part by weight of active compound is mixed with the stated amounts of solvent, and the concentrate is diluted with water to the desired concentration. Containers containing horse meat treated with the preparation of active compound of the desired concentration are populated with Lucilia cuprina larvae. After the desired period of time, the kill in % is determined. 100% means that all larvae have been killed; 0% means that none of the larvae have been killed.

[11] = 4 g/ha, Biological Examples table
[12] = 20 g/ha, Biological Examples table
[13] = 100 g/ha, Biological Examples table

**Q.** What does the source list for `CN(Cc1cnc(Cl)c(F)c1)C1=CC(=O)OC1` [Example 1, 4-[[(6-Chloro-5-fluoropyridin-3-yl)methyl](methyl)amino]furan-2(5H)-one]?
**A.** Kill rate in % after 10 days [1]: 100%; Kill rate in % after 7 days [2]: 30%

**Q.** Which “Kill rate in % after 7 days” value [2] does the source give for `CON(Cc1cnc(Cl)c(Cl)c1)C1=CC(=O)OC1` [Example 2, 4-[[(5,6-Dichloropyridin-3-yl)methyl](methoxy)amino]furan-2(5H)-one] here?
**A.** 30%

**Q.** `O=C1C=C(N(Cc2cnc(Cl)c(I)c2)C2CC2)CO1` [Example 3, 4-[[(6-Chloro-5-iodopyridin-3-yl)methyl](cyclopropyl)amino]furan-2(5H)-one] was tested. Which “Kill rate in % after 7 days” value [2] did it give?
**A.** 40%

**Q.** With `CN(Cc1cnc(Br)c(Cl)c1)C1=CC(=O)OC1` [Example 4, 4-[[(6-Bromo-5-chloropyridin-3-yl)methyl](methyl)amino]furan-2(5H)-one] as the molecule, how does the “Kill rate in % after 5 days” value [3] read?
**A.** 100%

**Q.** How did the “Kill rate in % after 5 days” value [4, 11] turn out when `CN(Cc1cnc(Cl)nc1)C1=CC(=O)OC1` [Example 5, 4-[[(2-Chloropyrimidin-5-yl)methyl](methyl)amino]furan-2(5H)-one] was run?
**A.** 100%

**Q.** `O=C1C=C(N(Cc2cnc(Cl)nc2)C2CC2)CO1` [Example 6, 4-[[(2-Chloropyrimidin-5-yl)methyl](cyclopropyl)amino]furan-2(5H)-one] was tested. Which “Kill rate in % after 5 days” value [4, 12] did it give?
**A.** 100%

**Q.** Which “Kill rate in % after 5 days” value [4, 13] does the source give for `CC1OC(=O)C=C1N(C)Cc1cnc(Cl)c(Cl)c1` (centres unmarked) [Example 7, 4-[[(5,6-dichloropyridin-3-yl)methyl](methyl)amino]-5-methylfuran-2(5H)-one] here?
**A.** 90%

**Q.** How did the “Kill rate in % after 5 days” value [4, 13] turn out when `CN(Cc1cnc(Cl)c(Cl)c1)C1=C(Cl)C(=O)OC1` [Example 8, 3-Chloro-4-[[(5,6-dichloropyridin-3-yl)methyl](methyl)amino]furan-2(5H)-one] was run?
**A.** 80%

**Q.** How did the “Kill rate in % after 5 days” value [4, 11] turn out when `CN(Cc1cnc(Cl)c(Cl)c1)C1=CC(=O)OC1` [Example 10, 4-[[(5,6-dichloropyridin-3-yl)methyl](methyl)amino]furan-2(5H)-one] was run?
**A.** 100%

**Q.** And the “Kill rate in % after 5 days” value ([4]; 20 g/ha, comparative table)?
**A.** 100%

**Q.** What about the “Kill rate in % after 7 days” value [5] of the same molecule?
**A.** 100%

**Q.** What does the source list for `O=C1C=C(N(Cc2cnc(Cl)c(Cl)c2)C2CC2)CO1` [Example 11]?
**A.** Kill rate in % after 5 days [4, 11]: 100%; Kill rate in % after 5 days ([4]; 100 g/ha, comparative table): 100%; Kill rate in % after 7 days [5]: 100%; Kill rate in % after 2 days [6]: 50%; Kill rate in % after 7 days [2]: 50%

**Q.** For `Cc1cc(CN(C2=CC(=O)OC2)C2CC2)cnc1Cl` [Example 12], which “Kill rate in % after 6 days” value [7] is on record?
**A.** 50%

**Q.** With `Cc1cc(CN(C)C2=CC(=O)OC2)cnc1Cl` [Example 13] as the molecule, how does the “Kill rate in % after 5 days” value [8] read?
**A.** 70%

**Q.** `CN(Cc1cnc(Cl)c(Br)c1)C1=CC(=O)OC1` [Example 14] was tested. Which “Kill rate in % after 5 days” value [4, 12] did it give?
**A.** 100%

**Q.** With `O=C1C=C(N(Cc2cnc(Cl)c(Br)c2)C2CC2)CO1` [Example 15] as the molecule, how does the “Kill rate in % after 14 days” value [9] read?
**A.** 70%

**Q.** And the “Kill rate in % after 6 days” value [7]?
**A.** 40%

**Q.** Which “Kill rate in % after 5 days” value [4, 12] does the source give for `CCN(Cc1cnc(Cl)c(Cl)c1)C1=CC(=O)OC1` [Example 16] here?
**A.** 100%

**Q.** `O=C1C=C(N(Cc2cnc(Cl)c(Cl)c2)C2CC2)CC1` [Example 17] was tested. Which “Kill rate in % after 5 days” value [4, 13] did it give?
**A.** 100%

**Q.** Which “Kill rate in % after 5 days” value [4, 13] does the source give for `CN(Cc1cnc(Cl)c(C#N)c1)C1=CC(=O)OC1` [Example 18] here?
**A.** 100%

**Q.** How did the “Kill rate in % after 5 days” value [4, 12] turn out when `CN(Cc1cnc(Cl)c(I)c1)C1=CC(=O)OC1` [Example 19] was run?
**A.** 70%

**Q.** For `CCN(Cc1cnc(Cl)c(C)c1)C1=CC(=O)OC1` [Example 20], which “Kill rate in % after 7 days” value [2] is on record?
**A.** 30%

**Q.** How did the “Kill rate in % after 5 days” value [4, 12] turn out when `O=C1C=C(N(Cc2cnc(Br)c(Br)c2)C2CC2)CO1` [Example 21] was run?
**A.** 80%

**Q.** `CN(Cc1cnc(Br)c(Br)c1)C1=CC(=O)OC1` [Example 22] was tested. Which “Kill rate in % after 5 days” value [3] did it give?
**A.** 100%

**Q.** For `O=C1C=C(N(Cc2cnc(Br)c(Cl)c2)C2CC2)CO1` [Example 23], which “Kill rate in % after 7 days” value [2] is on record?
**A.** 30%

**Q.** What does the source list for `CN(Cc1cnc(Br)c(F)c1)C1=CC(=O)OC1` [Example 24]?
**A.** Kill rate in % after 5 days [3]: 100%; Kill rate in % after 5 days [4, 11]: 100%

**Q.** Which “Kill rate in % after 5 days” value [4, 11] does the source give for `O=C1C=C(N(Cc2cnc(Br)c(F)c2)C2CC2)CO1` [Example 25] here?
**A.** 100%

**Q.** What about the “Kill rate in % after 2 days” value [10] of the same molecule?
**A.** 100%

**Q.** For `O=C1C=C(N(Cc2cnc(Cl)c(F)c2)C2CC2)CO1` [Example 26], which “Kill rate in % after 2 days” value [6] is on record?
**A.** 60%
